In patent US9963461B2, “Phillygenin ibuprofen ester, preparation method therefor, and application thereof” (priority 2014, dated 2018):
Marks after values point to notes of the source that are not given here.

How the values were obtained:
[1] = system: Coxsackie virus A16 (CoxA16); assay: Impact of the drugs on the virus-induced cytopathy (MTT); assay type: cell-based; conditions: CoxA16 100 TCID50, Vero cells, about the maximal non-cytotoxic concentration, 72 hours
[2] = system: respiratory syncytial virus (RSV); assay: as above; assay type: cell-based; conditions: RSV 100 TCID50, Vero cells, about the maximal non-cytotoxic concentration, 72 hours
[3] = system: Herpes Simplex Virus type I (HSV-1); assay: as above; assay type: cell-based; conditions: HSV-I 100 TCID50, Vero cells, about the maximal non-cytotoxic concentration, 72 hours
Adenovirus (AdV) = assay: as above; assay type: cell-based; conditions: ADV 100 TCID50, Vero cells, about the maximal non-cytotoxic concentration, 72 hours
Enterovirus EV71 = assay: as above; assay type: cell-based; conditions: EV71 100 TCID50, Vero cells, about the maximal non-cytotoxic concentration, 72 hours
[4] = system: coxsackie virus B3 (CVB3); assay: as above; assay type: cell-based; conditions: CVB3 100 TCID50, Vero cells, about the maximal non-cytotoxic concentration, 72 hours
[5] = system: sweat secretion of rat paw part; assay: Sweat secretion of rat paw part (coloring method); assay type: in vivo, Wistar rats; conditions: 300.0 mg/kg intragastric; for Animal number of sweat points of level +: + = sweat area below about 10%; for Animal number of sweat points of level ++: ++ = sweat area about 11-40%; for Animal number of sweat points of level +++: +++ = sweat area about 41-70%; for Animal number of sweat points of level ++++: ++++ = sweat area over 71%; for Animal number of sweat points of level −: − = no sweat point
Source text: This test was designed to observe the change of sweat secretion based on the mechanism that sweat gland is distributed on the rat paw pads, and iodine and starch can have purple reaction when encountered with sweat. In the test, 350 Wistar rats were selected, with equal male and female number, weighing 120-150 g. […] The rats were placed in a self-made rat fixation bag, with the double hind limbs exposed. The dirts on the right paw was gently scrubbed clean with the cotton swab dipped with anhydrous ethanol. Besides that subcutaneous injection was used for the pilocarpine solution, intragastric administration was used for all the other groups. […] When the test was complete, statistical process was carried out according to the rank-sum test with two-sample comparison, in order to compare the difference between the groups.

[6] = system: beer yeast induced rat fever; assay: Beer yeast induced rat fever; assay type: in vivo, Wistar rats; conditions: 300 mg/kg
Experimental: Male Wistar rats were selected, weighing 180-200 g. Before the test, WSC-411P portable digital thermometer was used to measure the normal rectal temperature twice (with certain interval for each time), and the average value of the two measurements was taken as the normal body temperature of the rat. Then 70 rats with the body temperature between 36.5° C. and 38° C. were chosen to be randomly divided into 7 groups by weight: the model (0.5% carboxymethylcellulose) group, the 2.5, 5, and 10 mg/kg phillygenin ibuprofen ester groups, the positive drug paracetamol (100 mg/kg) group, the ibuprofen group (i.e. prodrug control group, 300 mg/kg), the phillygenin group (100 mg/kg), with 10 rats for each group. Each group of rats were subjected to back subcutaneous injection with 10% fresh beer yeast suspension of 10 ml/kg to induce heat. After administration of 10% fresh beer yeast suspension for 6.0 h, phillygenin ibuprofen ester and paracetamol were both subjected to intragastric administration, and the model group was intragastrically administrated with equal volume of 0.5% carboxymethylcellulose. Rectal temperature was measured after 1 h, 2 h, 3 h and 4 h of the administration respectively. Changes in the body temperature were observed and difference between the groups was compared by inter-group t test processing through antipyretic percentage.

[7] = after coating B liquid for 1 minute
[8] = after coating B liquid for 5 minutes
[9] = after coating B liquid for 10 minutes
[10] = after coating B liquid for 15 minutes (Table 2-4)
[11] = after coating B liquid for 15 minutes (Table 2-5)

In the case of `CC(C)Cc1ccc(C(C)C(=O)O)cc1` (stereo not drawn) [Ibuprofen], the “antiviral effective rate (ER %)” value [1] is reported as 50.04%, the “antiviral effective rate (ER %)” value [2] is reported as 80.88** % and the “antiviral effective rate (ER %)” value [3] is reported as 84.30** %. The “antiviral effective rate (ER %)” value (Adenovirus (AdV)) was 50.61%, the “antiviral effective rate (ER %)” value (Enterovirus EV71) was 75.86** % and the “antiviral effective rate (ER %)” value [4] was 50.89%. The “Animal number of sweat points of level +” value [5, 7] was 1, the “Animal number of sweat points of level ++” value [5, 7] was 3 and the “Animal number of sweat points of level +++” value [5, 7] was 1. For the same compound, the “Animal number of sweat points of level ++++” value (from here on “Animal number … of level ++++”) [5, 7] was 5, the “Animal number of sweat points of level −” value [5, 7] was 0 and the “Animal number of sweat points of level +” value [5, 8] was 2. The “Animal number of sweat points of level ++” value [5, 8] was 1, the “Animal number of sweat points of level +++” value [5, 8] was 2 and the “Animal number … of level ++++” value [5, 8] was 5. For the same compound, the “Animal number of sweat points of level −” value [5, 8] was 0, the “Animal number of sweat points of level +” value [5, 9] was 1 and the “Animal number of sweat points of level ++” value [5, 9] was 2. The “Animal number of sweat points of level +++” value [5, 9] was 2, the “Animal number … of level ++++” value [5, 9] was 5 and the “Animal number of sweat points of level −” value [5, 9] was 0. For the same compound, the “Animal number of sweat points of level +” value [5, 10] was 1, the “Animal number of sweat points of level ++” value [5, 10] was 2 and the “Animal number of sweat points of level +++” value [5, 10] was 2. For the same compound, the “Animal number … of level ++++” value [5, 10] was 5, the “Animal number of sweat points of level −” value [5, 10] was 0 and the “Animal number of sweat points of level +” value [5, 11] was 1. The “Animal number of sweat points of level ++” value [5, 11] was 2, the “Animal number of sweat points of level +++” value [5, 11] was 2 and the “Animal number … of level ++++” value [5, 11] was 5. The “Animal number of sweat points of level −” value [5, 11] was 0, the “Body temperature (° C.)” value ([6]; 1 h after administration) was 39.21 ± 0.11 °C and the “antipyretic percentage (%)” value ([6]; 1 h after administration) was −1.05 ± 0.54 %. For the same compound, the “Body temperature (° C.)” value ([6]; 2 h after administration) was 38.92 ± 0.35 °C, the “antipyretic percentage (%)” value ([6]; 2 h after administration) was −1.7 ± 0.77 % and the “Body temperature (° C.)” value ([6]; 3 h after administration) was 38.71 ± 0.20 °C. The “antipyretic percentage (%)” value ([6]; 3 h after administration) was −2.32 ± 1.41 %, the “Body temperature (° C.)” value ([6]; 4 h after administration) was 38.49 ± 0.51 °C and the “antipyretic percentage (%)” value ([6]; 4 h after administration) was −2.88 ± 1.50 %.
